Measured values published in patent publication US20110190237A1, “Macrocyclic Prodrug Compounds Useful as Therapeutics” (NEXGENIX PHARMACEUTICALS, priority 2008, published 2011).
Converted amounts (≈) assume the structure as drawn. Where two headings read alike, the source gives them in different places.

Assays:
MDA231 (breast) = experiment: Cell proliferation assay (ATPlite), MDA231; format: cell-based; conditions: 4 days, read-out: Growth inhibition (IC50)
HSP90α = HSP90α (Homo sapiens, UniProt P07900); experiment: HSP90α affinity; format: binding
MV4;11 (leukemia) = experiment: Cell proliferation assay (ATPlite), MV4;11; format: cell-based; conditions: 4 days, read-out: Growth inhibition (IC50)
N87 (gastric) = experiment: Cell proliferation assay (ATPlite), N87; format: cell-based; conditions: read-out: Growth inhibition (IC50)
MDA-MB468 (breast) = experiment: Cell proliferation assay (ATPlite), MDA-MB468; format: cell-based; conditions: for IC50: read-out: Growth inhibition (IC50)
K562 (leukemia) = experiment: Cell proliferation assay (ATPlite), K562; format: cell-based; conditions: 4 days, read-out: Growth inhibition (IC50)
BT474 (breast) = experiment: Cell proliferation assay (ATPlite), BT474; format: cell-based; conditions: read-out: Growth inhibition (IC50)
HCT116 (colon) = experiment: Cell proliferation assay (ATPlite), HCT116; format: cell-based; conditions: 4 days, read-out: Growth inhibition (IC50)
[1] = In vitro conversion/stability of prodrug in plasma; format: in vitro ADME; conditions: mouse plasma; at 60 minutes
Experimental: (§1) Hydrolysis of prodrug in vivo was estimated by incubating phosphate prodrugs in vitro with mouse small intestine and liver homogenates, mouse plasma, and artificial gastric fluid. Plasma was freshly collected from nude mice. Liver and intestine homogenates were prepared by adding 3 volume of saline to freshly collected mouse tissues and homogenized using glass homogenizer. Gastric fluid was prepared by adding 80 mL of 1M hydrochloric acid to 800 mL of water and then supplementing with 2.0 g of sodium chloride and 3.2 g of pepsin powder. The final volume of the artificial gastric fluid was adjusted with water to 1000 mL (pH=1.1). […] 100 μL samples were collected at 0, 2, 5, 15, 30 and 60 minutes. 5 volumes methanol containing internal standard was added immediately. For samples from gastric fluid incubation, 1 volume of 0.01 M Sodium hydroxide was added before injection into LC/MS/MS. All samples were analyzed by LC/MS/MS to quantitate the concentration of 1a, 1b and the corresponding parent drugs. The concentration of the parent drugs of 1a and 1b was quantitated using standard curve prepared using each vehicle.
(§2) We then evaluate other prodrug conversion in vitro using tissue homogenates and a mimic of gastric fluid (pepsin solution at pH 1.1).

[2] = In vitro partition between plasma and cells in mouse whole blood; format: in vitro ADME; conditions: for Test article concentration in cellular elements / Test article concentration in plasma: mouse whole blood spiked at 5 μg/mL, 37° C.; for Partition of the test articles between plasma and cells: mouse whole blood, 5 μg/mL
Experimental: The whole blood was withdrawn from mice via cardio-puncture and placed in EDTA anticoagulant tubes. The test articles were spiked to whole blood at final concentration of 5 μg/mL (at least 2 mL) and incubated at 37° C. 200 μL whole blood was taken at 0 (immediate after incubation), 5 min, 15 min and 30 min and then was centrifuged to separate plasma and cellular elements. Plasma was transferred to clean tubes. 50 μL of plasma and cellular elements were processed by addition of 3 volumes (150 μl) of ice-cold methanol. After centrifugation, the supernatants were subjected to LC-MS/MS analysis of test articles in both plasma and cellular elements.

[3] = Solubility of phosphate prodrugs in organic- and aqueous-based media; format: physicochemical; conditions: for solubility: read-out: Maximum observed solubility
Experimental: Crystalline phosphate drugs 1a and 1b were tested first in several different organic- and aqueous-based media, including water, PBS, ETOH, DMA, CMC, and PG.
The maximum observed solubilities with small lots of crystalline drug in 4-mL glass clear tubes were: […]

[4] = In vitro conversion/stability of prodrug in artificial gastric fluid (pepsin solution, pH 1.1); format: in vitro ADME; conditions: artificial gastric fluid pH 1.1; at 60 minutes
Experimental: as §1, §2

MCF-7 xenograft tumors = conditions: mice bearing MCF-7 xenograft tumors; intraperitoneally, 200 mg/kg; DMSO/EtOH/phosphate-buffered saline 1:1:1; cited from earlier work
[5] = Solubility for oral formulation of PU24FCl; format: physicochemical; conditions: in our hands
Text: More recently, other novel non-natural product Hsp90 inhibitors have been reported (e.g. PU3 and CCT018159; see Chiosis et. al. Bioorg. Med. Chem. Lett. 2002, 10, 3555-3564; Vilenchik et. al. Chem. Biol. 2004, 11, 787-797; Chiosis et. al. WO 0236075, 2002; Drysdale et. al. WO 03/055860 A1, 2003; Wright et. al. Chem. Biol. 2004, 11, 775-785; Dymock et. al. Bioorg. Med. Chem. Lett. 2004, 14, 325-328; Dymock et. al. J. Med. Chem. 2005, 48, 4212-4215. Structure of Hsp90 in complex with PU3 pdb code 1UY6, and with PU24FCl: pdb code 1UYF and Clevenger et. al. Org. Lett. 2004, 6, 4459-4462). […] The 8-benzyladenines such as PU3 were designed to adopt the same C-shaped conformation as geldanamycin (Chiosis et. al. Current Cancer Drug Targets, 2003, 3, 371-376) with the adenine ring pointing to the adenine-binding site (hinge region), and the trimethoxybenzene ring emulating the H-bond accepting nature of the quinone ring of geldanamycin. […]

HCC827 (lung) = experiment: Cell proliferation assay (ATPlite), HCC827; format: cell-based; conditions: 4 days, read-out: Growth inhibition (IC50)
Experimental: (§3) Cell proliferation assays were performed in various oncology cell lines, including breast cancer (BT474 and MDA-MB468), leukemia (K562 CML and MV4;11 AML), colon (HCT116), prostate cancer (PC-3), Tarceva- and Iressa-resistant non-small cell lung cancer (NSCLC, […] and H1975), gastric cancer (N87) as well as glioblastoma (A172) cell lines. […] Cell viability at day 4 was measured by the amount of ATP present in viable cells using ATPlite assay kit according to manufacturer's protocol (Perkin Elmer, Boston, Mass.). IC50 was calculated by fitting the data using XLfit software.

H1975 (lung) = experiment: Cell proliferation assay (ATPlite), H1975; format: cell-based; conditions: 4 days, read-out: Growth inhibition (IC50)
Experimental: as §3

A172(glioblastoma) = experiment: Cell proliferation assay (ATPlite), A172; format: cell-based; conditions: 4 days, read-out: Growth inhibition (IC50)
Experimental: as §3

[6] = MDA-MB468 (breast), 4 days, ATPlite
[7] = BT474 (breast), 4 days, cell viability by ATPlite

Row | HSP90α affinity (HSP90α) | IC50 (MV4;11 (leukemia)) [nM] | IC50 (MDA-MB468 (breast); [6]) [nM] | IC50 (K562 (leukemia)) [nM] | IC50 (BT474 (breast); [7]) [nM] | IC50 (HCT116 (colon)) [nM] | Compound | IC50 (MDA231 (breast)) [nM] | IC50 (N87 (gastric); N87 (gastric), 4 days, ATPlite) [nM] | Prodrug intact in plasma [1] | Test article concentration in cellular elements ([2]; 0 min) [ng/mL] | Test article concentration in plasma ([2]; 0 min) [ng/mL] | Test article concentration in cellular elements ([2]; 5 min) [ng/mL] | Test article concentration in plasma ([2]; 5 min) [ng/mL] | Test article concentration in cellular elements ([2]; 15 min) [ng/mL] | Test article concentration in plasma ([2]; 15 min) [ng/mL] | Test article concentration in cellular elements ([2]; 30 min) [ng/mL] | Test article concentration in plasma ([2]; 30 min) [ng/mL] | Partition of the test articles between plasma and cells [2] | Solubility in water and PBS compared to the parent drugs [3] | Prodrug intact in artificial gastric fluid [4] | other results
1 | 15 nM | 2 | 2 | 4 | 2 | 11 | O=C1OCC/C=C/CC/C=C/C(=N\OCC(=O)N2CCCCC2)Cc2cc(O)cc(O)c21 [1b parent] | 2 | 1 | – | – | – | – | – | – | – | – | – | – | – | – | –
2 | – | – | – | – | – | – | O=C1OCC/C=C/CC/C=C/C(=N\OCC(=O)N2CCCCC2)Cc2c(Cl)c(OP(=O)(O)O)cc(O)c21 [Compound 1a] | – | – | about 90% | 1893.93 | 7988.91 | 1632.69 | 7654.94 | 1655.20 | 8123.27 | 1956.15 | 9680.38 | The concentration of 1a and 1b in plasma is larger than the nominated concentration in whole blood (5 μg/mL), which indicated that the partition of the test articles was mainly in plasma. | very soluble | about 70% | solubility ([3]; 0.5% CMC/0.1% Tween-20/0.45% NaCl): 87.5 mg/mL (≈ 157 mM); solubility ([3]; PBS): 55 mg/mL (≈ 98.8 mM)
3 | – | – | – | – | – | – | C#CCCCn1c(Cc2cc(OC)c(OC)c(OC)c2Cl)nc2c(N)nc(F)nc21 [PU24FCl] | – | – | – | – | – | – | – | – | – | – | – | – | – | – | Tumor growth (MCF-7 xenograft tumors): significantly repressed tumor growth; Solubility for oral formulation and delivery [5]: too insoluble
4 | – | 11 | 780 | 48 | 5 | – | C=CCNC1=C2C[C@@H](C)C[C@H](OC)[C@H](O)[C@@H](C)/C=C(\C)[C@H](OC(N)=O)[C@@H](OC)/C=C\C=C(/C)C(=O)NC(=CC1=O)C2=O [Compound 17AAG, 17-allylamino-17-demethoxygeldanamycin, reference compound] | – | 1 | – | – | – | – | – | – | – | – | – | – | – | – | Anti-proliferative activity against MDA-MB468 (MDA-MB468 (breast); MDA-MB468): significantly less sensitive; IC50 (HCC827 (lung)): 56 nM; IC50 (H1975 (lung)): 35 nM
5 | 21 nM | 3 | 9 | 6 | 7 | 9 | O=C1OCC/C=C/CC/C=C/C(=N\OCC(=O)N2CCCCC2)Cc2c(Cl)c(O)cc(O)c21 [1a parent] | 7 | 4 | – | – | – | – | – | – | – | – | – | – | – | – | IC50 (A172(glioblastoma)): 42 nM; IC50 (HCC827 (lung)): 31 nM; IC50 (H1975 (lung)): 25 nM

Row | Compound | HSP90α affinity (HSP90α) | IC50 (MV4;11 (leukemia)) [nM] | IC50 (MDA-MB468 (breast); [6]) [nM] | IC50 (K562 (leukemia)) [nM] | IC50 (BT474 (breast); [7]) [nM] | IC50 (HCT116 (colon)) [nM] | IC50 (MDA231 (breast)) [nM] | IC50 (N87 (gastric); N87 (gastric), 4 days, ATPlite) [nM] | Prodrug intact in plasma [1] | Test article concentration in cellular elements ([2]; 0 min) [ng/mL] | Test article concentration in plasma ([2]; 0 min) [ng/mL] | Test article concentration in cellular elements ([2]; 5 min) [ng/mL] | Test article concentration in plasma ([2]; 5 min) [ng/mL] | Test article concentration in cellular elements ([2]; 15 min) [ng/mL] | Test article concentration in plasma ([2]; 15 min) [ng/mL] | Test article concentration in cellular elements ([2]; 30 min) [ng/mL] | Test article concentration in plasma ([2]; 30 min) [ng/mL] | Partition of the test articles between plasma and cells [2] | Solubility in water and PBS compared to the parent drugs [3] | Prodrug intact in artificial gastric fluid [4] | other results
6 | O=C1OCC/C=C/CC/C=C/C(=N\OCC(=O)N2CCCCC2)Cc2cc(OP(=O)(O)O)cc(O)c21 [Compound 1b] | >10 000 nM | – | – | – | – | – | – | – | about 90% | 1999.60 | 7119.50 | 1364.01 | 7833.27 | 1070.97 | 7672.71 | 1237.82 | 7409.47 | The concentration of 1a and 1b in plasma is larger than the nominated concentration in whole blood (5 μg/mL), which indicated that the partition of the test articles was mainly in plasma. | very soluble | about 70% | Binding to Hsp90 in vitro (HSP90α): does not bind; IC50 (N87 (gastric); 96 h): 19 nM; IC50 (MDA-MB468 (breast); Homo sapiens, MDA-MB-468, 96 h): 37 nM; IC50 (BT474 (breast); Homo sapiens, BT-474, 96 h): 14 nM
